The values that follow come from patent US20070254309A1, “Methods for Assessing Embryo Viability” (Northern Sydney and Central Coast Area Health Service, priority 2006, published 2007).

This assay concerns p53. The experiment in a line: Western blot quantitation of p53 released into embryo culture media. The class given is cell-based, mouse. To be noted: embryos cultured in modHTF in the absence of Paf, compared with 0.1 μM Paf supplement; FIG. 3.

Description: Embryos were collected and washed 3 times in cold PBS and transferred in a maximum volume of 1.5 μl PBS. Embryo culture media aliquots had embryos and all cells removed and then subjected to freeze drying. The lyophilized proteins were redissolved in 1.5 μl of water. Embryo or reconstituted culture media was mixed with 1.5 μl of 2X extraction buffer (2X PBS, 2% Triton X-100, 24 mM deoxycholic acid, 0.2% sodium dodecyl sulfate, 20 mM NaF, 20 mM Na4P2O7, 2 mM PMSF, 3.08 μM Aprotinin, 42 μM Leupeptin and 2.91 μM Pepstatin A-all from Sigma). The embryos were lysed by three cycles of freezing in liquid nitrogen and thawing (with vortexing). […]
Proteins were blotted into PVDF membranes (Hybond-P, Amersham Pharmacia) in a semi-dry blotting apparatus overnight using transfer buffer (12 mM Tris PH 7.0, 96 mM Glycine and 20% methanol). […] Membranes were probed with 1:500 diluted anti P53 antibody overnight at 4° C. in 2.5% skim milk, and detected with 1:500 diluted horse radish peroxidase (Jackson ImmunoResearch Laboratories, West Grove, Pa., USA) conjugated mouse antibody. […]
p53 was detected by Western blot as described above and densitometry was performed using Scion Image software (Scion Corporation, Frederick, Md., USA).

Take “1-o-octadecyl/hexadecyl-2-acetyl-sn-glycero-3-phosphocholine [Paf]”: the “extra-embryonic concentration of p53” value is recorded as “higher”.
